From patent US9139609B2, “C-4″ position substituted macrolide derivative” (priority 2011, dated 2015)
Values after ≈ are worked out from the molar mass of the structure shown.

Columns and labels:
Type in all cases: cell-based
[1] = test system: Streptococcus pneumoniae ATCC700904; assay: In vitro antibacterial activity, microbroth dilution method (CLSI method), test bacterium C (erythromycin resistant); settings: read-out: MIC (minimum inhibitory concentration), test bacterium C
Protocol: (§1) In vitro antibacterial activities of the compounds of the present invention against various test bacteria were measured according to the microbroth dilution method (CLSI method). Among them, the bacteria C, D and E are erythromycin resistant bacteria. The MIC values (minimum inhibitory concentration, μg/ml) for the test bacteria A and B are exemplified in Table 22.

[2] = test system: Streptococcus pyogenes M808; assay: In vitro antibacterial activity, microbroth dilution method (CLSI method), test bacterium D (erythromycin resistant); settings: read-out: MIC (minimum inhibitory concentration), test bacterium D
Protocol: as §1

[3] = test system: Haemophilus infuenzae ATCC43095; assay: In vitro antibacterial activity, microbroth dilution method (CLSI method), test bacterium A; settings: for MIC: read-out: MIC (minimum inhibitory concentration), test bacterium A
Protocol: as §1

[4] = test system: Streptococcus pneumoniae ATCC49619; assay: In vitro antibacterial activity, microbroth dilution method (CLSI method), test bacterium B; settings: for MIC: read-out: MIC (minimum inhibitory concentration), test bacterium B
Protocol: as §1

| SMILES | MIC [1] [µg/mL] | MIC [2] [µg/mL] | MIC [3] [µg/mL] | MIC [4] [µg/mL] | other results |
| --- | --- | --- | --- | --- | --- |
| CC[C@H]1OC(=O)[C@H](C)[C@@H](O[C@H]2C[C@@](C)(OC)[C@@](O)(CN(C)CCN(CC)CC)[C@H](C)O2)[C@H](C)[C@@H](O[C@@H]2O[C@H](C)C[C@H](N(C)C)[C@H]2O)[C@@](C)(OC)C[C@@H](C)C(=O)[C@H](C)[C@H]2N(CC3CCS(=O)(=O)C3)C(=O)O[C@]12C (stereo partly shown) [Example 154] | 0.12 to 0.25 (≈ 0.115 to 0.239 µM) | 4 to 8 (≈ 3.82 to 7.64 µM) | – | – | – |
| CC[C@H]1OC(=O)[C@H](C)[C@@H](O[C@H]2C[C@@](C)(OC)[C@@](O)(CN(C)CCN(C)C(C)(C)c3ccccc3OC)[C@H](C)O2)[C@H](C)[C@@H](O[C@@H]2O[C@H](C)C[C@H](N(C)C)[C@H]2O)[C@]2(C)C[C@@H](C)C(O2)[C@H](C)[C@H]2NC(=O)O[C@@]21C [Example332] | – | – | 4 (≈ 4.04 µM) | 0.06 (≈ 0.0605 µM) | – |
| CC[C@H]1OC(=O)[C@H](C)[C@@H](O[C@H]2C[C@@](C)(OC)[C@@](O)(CN(CC)CCN(CC)CC)[C@H](C)O2)[C@H](C)[C@@H](O[C@@H]2O[C@H](C)C[C@H](N(C)C)[C@H]2O)[C@@](C)(OC)C[C@@H](C)C(=O)[C@H](C)[C@H]2N(CCNS(C)(=O)=O)C(=O)O[C@]12C [Example 413] | 0.12 to 0.25 (≈ 0.114 to 0.238 µM) | 4 to 8 (≈ 3.81 to 7.62 µM) | – | – | – |
| CC[C@H]1OC(=O)[C@H](C)[C@@H](O[C@H]2C[C@@](C)(OC)[C@@](O)(CN(C)CCN(CC)CC)[C@H](C)O2)[C@H](C)[C@@H](O[C@@H]2O[C@H](C)C[C@H](N(C)C)[C@H]2O)[C@@](C)(OC)C[C@@H](C)C(=O)[C@H](C)[C@H]2N(CCN3CCNS3(=O)=O)C(=O)O[C@]12C [Example 440] | 0.12 to 0.25 (≈ 0.113 to 0.235 µM) | 4 to 8 (≈ 3.76 to 7.52 µM) | – | – | – |
| CC[C@H]1OC(=O)[C@H](C)[C@@H](O[C@H]2C[C@@](C)(OC)[C@@](O)(CN(C)CCN(C)C(C)(C)c3ccccc3OC)[C@H](C)O2)[C@H](C)[C@@H](O[C@@H]2O[C@H](C)C[C@H](N(C)C)[C@H]2O)[C@@](C)(OC)C[C@@H](C)[C@@H]2NCCN3C(=O)O[C@@]1(C)[C@H]3[C@@H]2C [Example340] | – | – | 4 (≈ 3.82 µM) | 0.06 (≈ 0.0572 µM) | – |
| CC[C@H]1OC(=O)[C@H](C)[C@@H](O[C@H]2C[C@@](C)(OC)[C@@](O)(CN(C)CCN(CC)C(C)=O)[C@H](C)O2)[C@H](C)[C@@H](O[C@@H]2O[C@H](C)C[C@H](N(C)C)[C@H]2O)[C@@](C)(OC)C[C@@H](C)C(=O)[C@H](C)[C@H]2NC(=O)O[C@@]21C [Example263] | – | – | 8 (≈ 8.61 µM) | 0.06 (≈ 0.0646 µM) | – |
| CC[C@H]1OC(=O)[C@H](C)[C@@H](O[C@H]2C[C@@](C)(OC)[C@@](O)(CN(C)C(=O)CN(CC)CC)[C@H](C)O2)[C@H](C)[C@@H](O[C@@H]2O[C@H](C)C[C@H](N(C)C)[C@H]2O)[C@@](C)(OC)C[C@@H](C)C(=O)[C@H](C)[C@H]2NC(=O)O[C@@]21C [Example 329] | 0.5 to 2 (≈ 0.538 to 2.15 µM) | ≥ 16 | – | – | – |
| CC[C@H]1OC(=O)[C@H](C)[C@@H](O[C@H]2C[C@@](C)(OC)[C@@](O)(CN(CCOC)CCN(CC)CC)[C@H](C)O2)[C@H](C)[C@@H](O[C@@H]2O[C@H](C)C[C@H](N(C)C)[C@H]2O)[C@@](C)(OC)C[C@@H](C)C(=O)[C@H](C)[C@H]2N(CCNS(C)(=O)=O)C(=O)O[C@]12C [Example 443] | 0.12 to 0.25 (≈ 0.111 to 0.231 µM) | 4 to 8 (≈ 3.7 to 7.4 µM) | – | – | – |
| CC[C@H]1OC(=O)[C@H](C)[C@@H](O[C@H]2C[C@@](C)(OC)[C@@](O)(CN(C)CCN(CC)CC)[C@H](C)O2)[C@H](C)[C@@H](O[C@@H]2O[C@H](C)C[C@H](N(C)C)[C@H]2O)[C@@](C)(OC)C[C@@H](C)C(=O)[C@H](C)[C@H]2N(CCN3CCNS3(=O)=O)C(=O)O[C@]12C [Example440] | – | – | 4 (≈ 3.76 µM) | 0.03 (≈ 0.0282 µM) | – |
| CC[C@H]1OC(=O)[C@H](C)[C@@H](O[C@H]2C[C@@](C)(OC)[C@@](O)(CN(C)CCN(C)C(C)(C)c3ccccc3OC)[C@H](C)O2)[C@H](C)[C@@H](O[C@@H]2O[C@H](C)C[C@H](N(C)C)[C@H]2O)[C@@]2(C)C[C@@H](C)C3(NCCN4C(=O)O[C@@]1(C)[C@H]4[C@H]3C)O2 [Example341] | – | – | – | – | MIC (minimum inhibitory concentration), test bacterium A [3]: 4 µg/mL (≈ 3.87 µM); MIC (minimum inhibitory concentration), test bacterium B [4]: 0.06 µg/mL (≈ 0.0581 µM) |
| CC[C@H]1OC(=O)[C@H](C)[C@@H](O[C@H]2C[C@@](C)(OC)[C@@](O)(CN(C)CCN(C)C(C)(C)c3ccccc3OC)[C@H](C)O2)[C@H](C)[C@@H](O[C@@H]2O[C@H](C)C[C@H](N(C)C)[C@H]2O)[C@@](C)(OC)C[C@@H](C)C2=NCCN3C(=O)O[C@@]1(C)[C@H]3[C@H]2C [Example338] | – | – | 8 (≈ 7.65 µM) | 0.06 (≈ 0.0573 µM) | – |
| CC[C@H]1OC(=O)[C@H](C)[C@@H](O[C@H]2C[C@@](C)(OC)[C@@](O)(CN(C)CCN(CC)C(C)=O)[C@H](C)O2)[C@H](C)[C@@H](O[C@@H]2O[C@H](C)C[C@H](N(C)C)[C@H]2O)[C@@](C)(OC)C[C@@H](C)C(=O)[C@H](C)[C@H]2NC(=O)O[C@@]21C [Example 263] | 0.5 to 2 (≈ 0.538 to 2.15 µM) | ≥ 16 | – | – | – |
| CC[C@H]1OC(=O)[C@H](C)[C@@H](O[C@H]2C[C@@](C)(OC)[C@@](O)(CN(CC)CCN(CC)CC)[C@H](C)O2)[C@H](C)[C@@H](O[C@@H]2O[C@H](C)C[C@H](N(C)C)[C@H]2O)[C@@](C)(OC)C[C@@H](C)C(=O)[C@H](C)[C@H]2N(CCNS(C)(=O)=O)C(=O)O[C@]12C [Example413] | – | – | 4 (≈ 3.81 µM) | 0.03 (≈ 0.0286 µM) | – |
| CC[C@H]1OC(=O)[C@H](C)[C@@H](O[C@H]2C[C@@](C)(OC)[C@@](O)(CN(C)CCN(C)C)[C@H](C)O2)[C@H](C)[C@@H](O[C@@H]2O[C@H](C)C[C@H](N(C)C)[C@H]2O)[C@@](C)(OC)C[C@@H](C)C(=O)[C@H](C)[C@H]2N(C)C(=O)O[C@]12C [Example 183] | 0.5 to 2 (≈ 0.555 to 2.22 µM) | ≥ 16 | – | – | – |
| CC[C@H]1OC(=O)[C@H](C)[C@@H](O[C@H]2C[C@@](C)(OC)[C@@](O)(CN(C)CCN(C(C)C)C(C)C)[C@H](C)O2)[C@H](C)[C@@H](O[C@@H]2O[C@H](C)C[C@H](N(C)C)[C@H]2O)[C@@](C)(OC)C[C@@H](C)C(=O)[C@H](C)[C@H]2N(CCS(=O)(=O)NC)C(=O)O[C@]12C [Example451] | – | – | 4 (≈ 3.76 µM) | 0.03 (≈ 0.0282 µM) | – |
| CC[C@H]1OC(=O)[C@H](C)[C@@H](O[C@H]2C[C@@](C)(OC)[C@@](O)(CN(C)CCN(CC)C3CCC3)[C@H](C)O2)[C@H](C)[C@@H](O[C@@H]2O[C@H](C)C[C@H](N(C)C)[C@H]2O)[C@@](C)(OC)C[C@@H](C)C(=O)[C@H](C)[C@H]2N(CCCS(C)(=O)=O)C(=O)O[C@]12C [Example 418] | 0.12 to 0.25 (≈ 0.113 to 0.236 µM) | ≤ 2 | – | – | – |
| CC[C@H]1OC(=O)[C@H](C)[C@@H](O[C@H]2C[C@@](C)(OC)[C@@](O)(CN(C)CCN(C)C)[C@H](C)O2)[C@H](C)[C@@H](O[C@@H]2O[C@H](C)C[C@H](N(C)C)[C@H]2O)[C@@](C)(OC(=O)NC/C=C/c2ccc3ncccc3c2)C[C@@H](C)C(=O)[C@H](C)[C@H]2NC(=O)O[C@@]21C [Example 348] | 0.12 to 0.25 (≈ 0.111 to 0.231 µM) | 4 to 8 (≈ 3.69 to 7.38 µM) | – | – | – |
| CC[C@H]1OC(=O)[C@H](C)[C@@H](O[C@H]2C[C@@](C)(OC)[C@@](O)(CN(C)CCN(CC)C(=O)OC)[C@H](C)O2)[C@H](C)[C@@H](O[C@@H]2O[C@H](C)C[C@H](N(C)C)[C@H]2O)[C@@](C)(OC)C[C@@H](C)C(=O)[C@H](C)[C@H]2NC(=O)O[C@@]21C [Example 264] | 0.12 to 0.25 (≈ 0.127 to 0.264 µM) | ≥ 16 | – | – | – |
| CC[C@H]1OC(=O)[C@H](C)[C@@H](O[C@H]2C[C@@](C)(OC)[C@@](O)(CN(C)CCN3C4CCC3CC4)[C@H](C)O2)[C@H](C)[C@@H](O[C@@H]2O[C@H](C)C[C@H](N(C)C)[C@H]2O)[C@@](C)(OC)C[C@@H](C)C(=O)[C@H](C)[C@H]2N(CCNS(C)(=O)=O)C(=O)O[C@]12C [Example 446] | 0.12 to 0.25 (≈ 0.113 to 0.236 µM) | 4 to 8 (≈ 3.77 to 7.54 µM) | – | – | – |
| CC[C@H]1OC(=O)[C@H](C)[C@@H](O[C@H]2C[C@@](C)(OC)[C@@](O)(CN(C)CCN(C)C(C)(C)c3ccccc3OC)[C@H](C)O2)[C@H](C)[C@@H](O[C@@H]2O[C@H](C)C[C@H](N(C)C)[C@H]2O)[C@]2(C)C[C@@H](C)C(O2)[C@H](C)[C@H]2NC(=O)O[C@@]21C [Example 332] | 0.5 to 2 (≈ 0.504 to 2.02 µM) | ≥ 16 | – | – | – |
| CC[C@H]1OC(=O)[C@H](C)[C@@H](O[C@H]2C[C@@](C)(OC)[C@@](O)(CN(C)CCN(C(C)C)C(C)C)[C@H](C)O2)[C@H](C)[C@@H](O[C@@H]2O[C@H](C)C[C@H](N(C)C)[C@H]2O)[C@@](C)(OC)C[C@@H](C)C(=O)[C@H](C)[C@H]2N(CCS(=O)(=O)NC)C(=O)O[C@]12C [Example 451] | 0.12 to 0.25 (≈ 0.113 to 0.235 µM) | 4 to 8 (≈ 3.76 to 7.52 µM) | – | – | – |
| CC[C@H]1OC(=O)[C@H](C)[C@@H](O[C@H]2C[C@@](C)(OC)[C@@](O)(CN(C)CCN(CC)CC)[C@H](C)O2)[C@H](C)[C@@H](O[C@@H]2O[C@H](C)C[C@H](N(C)C)[C@H]2O)[C@@](C)(OC)C[C@@H](C)C(=O)[C@H](C)[C@H]2N(O)C(=O)O[C@]12C [Example 170] | 0.12 to 0.25 (≈ 0.129 to 0.268 µM) | 4 to 8 (≈ 4.3 to 8.59 µM) | – | – | – |
| CC[C@H]1OC(=O)[C@H](C)[C@@H](O[C@H]2C[C@@](C)(OC)[C@@](O)(CN(C)CCN(C(C)C)C(C)C)[C@H](C)O2)[C@H](C)[C@@H](O[C@@H]2O[C@H](C)C[C@H](N(C)C)[C@H]2O)[C@@](C)(OC)C[C@@H](C)C(=O)[C@H](C)[C@H]2N(CCOS(N)(=O)=O)C(=O)O[C@]12C [Example 456] | 0.12 to 0.25 (≈ 0.113 to 0.234 µM) | ≤ 2 | – | – | – |
